# From the supplement of paper PMC10307832
# Legend:
# Experiment in all cases: relative viability (nuclei count vs DMSO), 5 days (fraction); higher = more cells survive
# Afatinib + Pictilisib = compound: CN(C)C/C=C/C(=O)Nc1cc2c(Nc3ccc(F)c(Cl)c3)ncnc2cc1O[C@H]1CCOC1 [Afatinib] + CS(=O)(=O)N1CCN(Cc2cc3nc(-c4cccc5[nH]ncc45)nc(N4CCOCC4)c3s2)CC1 [Pictilisib] (partner 1 µM)
# Summary of the method: (§1)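 Relative viability divides the nuclei count in treated wells by that in vehicle wells. Lung cancer cell lines were seeded in 1536-well plates, dosed by pin tool the next day, and fixed and stained after 5 days in one step with final 0.05% Triton X-100, 1% formaldehyde and 1 ug/ml Hoechst. Dosing was a single drug or a fixed anchor-drug dose plus five library-drug doses (not always all listed) in √10 steps, and values are medians of duplicate plates imaged at 4×.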
# Afatinib + Decitabine = compound: CN(C)C/C=C/C(=O)Nc1cc2c(Nc3ccc(F)c(Cl)c3)ncnc2cc1O[C@H]1CCOC1 [Afatinib] + Nc1ncn([C@H]2C[C@H](O)[C@@H](CO)O2)c(=O)n1 [Decitabine] (partner 2 µM)
# Summary of the method: as §1
# Afatinib + Crizotinib = compound: CN(C)C/C=C/C(=O)Nc1cc2c(Nc3ccc(F)c(Cl)c3)ncnc2cc1O[C@H]1CCOC1 [Afatinib] + C[C@@H](Oc1cc(-c2cnn(C3CCNCC3)c2)cnc1N)c1c(Cl)ccc(F)c1Cl [Crizotinib] (partner 1 µM)
# Summary of the method: as §1
# Afatinib + Alpelisib = compound: CN(C)C/C=C/C(=O)Nc1cc2c(Nc3ccc(F)c(Cl)c3)ncnc2cc1O[C@H]1CCOC1 [Afatinib] + Cc1nc(NC(=O)N2CCC[C@H]2C(N)=O)sc1-c1ccnc(C(C)(C)C(F)(F)F)c1 [Alpelisib] (partner 2 µM)
# Summary of the method: as §1
# Afatinib + Phenformin = compound: CN(C)C/C=C/C(=O)Nc1cc2c(Nc3ccc(F)c(Cl)c3)ncnc2cc1O[C@H]1CCOC1 [Afatinib] + N=C(N)NC(=N)NCCc1ccccc1 [Phenformin] (partner 250 µM)
# Summary of the method: as §1
# Afatinib + Lapatinib = compound: CN(C)C/C=C/C(=O)Nc1cc2c(Nc3ccc(F)c(Cl)c3)ncnc2cc1O[C@H]1CCOC1 [Afatinib] + CS(=O)(=O)CCNCc1ccc(-c2ccc3ncnc(Nc4ccc(OCc5cccc(F)c5)c(Cl)c4)c3c2)o1 [Lapatinib] (partner 2 µM)
# Summary of the method: as §1
# Afatinib + Olaparib = compound: CN(C)C/C=C/C(=O)Nc1cc2c(Nc3ccc(F)c(Cl)c3)ncnc2cc1O[C@H]1CCOC1 [Afatinib] + O=C(c1cc(Cc2n[nH]c(=O)c3ccccc23)ccc1F)N1CCN(C(=O)C2CC2)CC1 [Olaparib] (partner 8 µM)
# Summary of the method: as §1
# Afatinib + Navitoclax = compound: CN(C)C/C=C/C(=O)Nc1cc2c(Nc3ccc(F)c(Cl)c3)ncnc2cc1O[C@H]1CCOC1 [Afatinib] + CC1(C)CCC(c2ccc(Cl)cc2)=C(CN2CCN(c3ccc(C(=O)NS(=O)(=O)c4ccc(N[C@H](CCN5CCOCC5)CSc5ccccc5)c(S(=O)(=O)C(F)(F)F)c4)cc3)CC2)C1 [Navitoclax] (partner 0.5 µM)
# Summary of the method: as §1
# Afatinib + Foretinib = compound: CN(C)C/C=C/C(=O)Nc1cc2c(Nc3ccc(F)c(Cl)c3)ncnc2cc1O[C@H]1CCOC1 [Afatinib] + COc1cc2c(Oc3ccc(NC(=O)C4(C(=O)Nc5ccc(F)cc5)CC4)cc3F)ccnc2cc1OCCCN1CCOCC1 [Foretinib] (partner 0.25 µM)
# Summary of the method: as §1
# Afatinib + Linsitinib = compound: CN(C)C/C=C/C(=O)Nc1cc2c(Nc3ccc(F)c(Cl)c3)ncnc2cc1O[C@H]1CCOC1 [Afatinib] + C[C@]1(O)C[C@@H](c2nc(-c3ccc4ccc(-c5ccccc5)nc4c3)c3c(N)nccn32)C1 [Linsitinib] (partner 1 µM)
# Summary of the method: as §1
# Afatinib = compound: CN(C)C/C=C/C(=O)Nc1cc2c(Nc3ccc(F)c(Cl)c3)ncnc2cc1O[C@H]1CCOC1 [Afatinib]
# Summary of the method: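 On vehicle-anchored 1536-well plates, lung cancer cell lines held overnight at 37 °C were pinned with five library-drug doses (not always all listed) spaced by √10. With no medium change over 5 days, they were then fixed, permeabilised and Hoechst-stained in one step and imaged at 4×. MetaXpress counted nuclei, and viability is the median across plates of treated-well over vehicle-well nuclei. Acceptance needed control CV below 25% and at least one doubling.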
# Afatinib + Bortezomib = compound: CN(C)C/C=C/C(=O)Nc1cc2c(Nc3ccc(F)c(Cl)c3)ncnc2cc1O[C@H]1CCOC1 [Afatinib] + CC(C)C[C@H](NC(=O)[C@H](Cc1ccccc1)NC(=O)c1cnccn1)B(O)O [Bortezomib] (partner 0.002 µM)
# Summary of the method: as §1
cell line,measurement,setting,value
A549,relative viability,Afatinib + Pictilisib; first compound 0.005 µM,0.499
same,relative viability,Afatinib + Pictilisib; first compound 0.01581 µM,0.416
same,relative viability,Afatinib + Pictilisib; first compound 0.05 µM,0.478
same,relative viability,Afatinib + Pictilisib; first compound 0.1581 µM,0.389
same,relative viability,Afatinib + Pictilisib; first compound 0.5 µM,0.442
same,relative viability,Afatinib + Decitabine; first compound 0.005 µM,0.28
same,relative viability,Afatinib + Decitabine; first compound 0.01581 µM,0.272
same,relative viability,Afatinib + Decitabine; first compound 0.05 µM,0.278
same,relative viability,Afatinib + Decitabine; first compound 0.1581 µM,0.232
same,relative viability,Afatinib + Decitabine; first compound 0.5 µM,0.299
same,relative viability,Afatinib + Crizotinib; first compound 0.005 µM,0.995
same,relative viability,Afatinib + Crizotinib; first compound 0.01581 µM,0.655
same,relative viability,Afatinib + Crizotinib; first compound 0.05 µM,0.712
same,relative viability,Afatinib + Crizotinib; first compound 0.1581 µM,0.695
same,relative viability,Afatinib + Crizotinib; first compound 0.5 µM,0.796
same,relative viability,Afatinib + Alpelisib; first compound 0.005 µM,0.629
same,relative viability,Afatinib + Alpelisib; first compound 0.01581 µM,0.632
same,relative viability,Afatinib + Alpelisib; first compound 0.05 µM,0.631
same,relative viability,Afatinib + Alpelisib; first compound 0.1581 µM,0.61
same,relative viability,Afatinib + Alpelisib; first compound 0.5 µM,0.642
same,relative viability,Afatinib + Phenformin; first compound 0.005 µM,0.152
same,relative viability,Afatinib + Phenformin; first compound 0.01581 µM,0.154
same,relative viability,Afatinib + Phenformin; first compound 0.05 µM,0.192
same,relative viability,Afatinib + Phenformin; first compound 0.1581 µM,0.162
same,relative viability,Afatinib + Phenformin; first compound 0.5 µM,0.15
same,relative viability,Afatinib + Lapatinib; first compound 0.005 µM,0.974
same,relative viability,Afatinib + Lapatinib; first compound 0.01581 µM,0.979
same,relative viability,Afatinib + Lapatinib; first compound 0.05 µM,1.01
same,relative viability,Afatinib + Lapatinib; first compound 0.1581 µM,0.893
same,relative viability,Afatinib + Lapatinib; first compound 0.5 µM,0.997
same,relative viability,Afatinib + Olaparib; first compound 0.005 µM,0.321
same,relative viability,Afatinib + Olaparib; first compound 0.01581 µM,0.451
same,relative viability,Afatinib + Olaparib; first compound 0.05 µM,0.359
same,relative viability,Afatinib + Olaparib; first compound 0.1581 µM,0.304
same,relative viability,Afatinib + Olaparib; first compound 0.5 µM,0.375
same,relative viability,Afatinib + Navitoclax; first compound 0.005 µM,1.3
same,relative viability,Afatinib + Navitoclax; first compound 0.01581 µM,1.11
same,relative viability,Afatinib + Navitoclax; first compound 0.05 µM,1.2
same,relative viability,Afatinib + Navitoclax; first compound 0.1581 µM,1.09
same,relative viability,Afatinib + Navitoclax; first compound 0.5 µM,1.16
same,relative viability,Afatinib + Foretinib; first compound 0.005 µM,0.826
same,relative viability,Afatinib + Foretinib; first compound 0.01581 µM,0.835
same,relative viability,Afatinib + Foretinib; first compound 0.05 µM,0.781
same,relative viability,Afatinib + Foretinib; first compound 0.1581 µM,0.806
same,relative viability,Afatinib + Foretinib; first compound 0.5 µM,0.861
same,relative viability,Afatinib + Linsitinib; first compound 0.005 µM,0.608
same,relative viability,Afatinib + Linsitinib; first compound 0.01581 µM,0.435
same,relative viability,Afatinib + Linsitinib; first compound 0.05 µM,0.533
same,relative viability,Afatinib + Linsitinib; first compound 0.1581 µM,0.433
same,relative viability,Afatinib + Linsitinib; first compound 0.5 µM,0.467
same,relative viability,Afatinib; 0.005 µM,0.969
same,relative viability,Afatinib; 0.01581 µM,1
same,relative viability,Afatinib; 0.05 µM,0.938
same,relative viability,Afatinib; 0.1581 µM,0.867
same,relative viability,Afatinib; 0.5 µM,0.858
EBC-1,relative viability,Afatinib + Pictilisib; first compound 0.005 µM,0.391
same,relative viability,Afatinib + Pictilisib; first compound 0.01581 µM,0.386
same,relative viability,Afatinib + Pictilisib; first compound 0.05 µM,0.465
same,relative viability,Afatinib + Pictilisib; first compound 0.1581 µM,0.358
same,relative viability,Afatinib + Pictilisib; first compound 0.5 µM,0.372
same,relative viability,Afatinib + Crizotinib; first compound 0.005 µM,0.193
same,relative viability,Afatinib + Crizotinib; first compound 0.01581 µM,0.174
same,relative viability,Afatinib + Crizotinib; first compound 0.05 µM,0.191
same,relative viability,Afatinib + Crizotinib; first compound 0.1581 µM,0.189
same,relative viability,Afatinib + Crizotinib; first compound 0.5 µM,0.209
same,relative viability,Afatinib + Alpelisib; first compound 0.005 µM,0.787
same,relative viability,Afatinib + Alpelisib; first compound 0.01581 µM,0.835
same,relative viability,Afatinib + Alpelisib; first compound 0.05 µM,0.905
same,relative viability,Afatinib + Alpelisib; first compound 0.1581 µM,0.81
same,relative viability,Afatinib + Alpelisib; first compound 0.5 µM,0.915
same,relative viability,Afatinib + Lapatinib; first compound 0.005 µM,0.246
same,relative viability,Afatinib + Lapatinib; first compound 0.01581 µM,0.196
same,relative viability,Afatinib + Lapatinib; first compound 0.05 µM,0.198
same,relative viability,Afatinib + Lapatinib; first compound 0.1581 µM,0.195
same,relative viability,Afatinib + Lapatinib; first compound 0.5 µM,0.212
same,relative viability,Afatinib + Bortezomib; first compound 0.005 µM,0.594
same,relative viability,Afatinib + Bortezomib; first compound 0.01581 µM,0.59
same,relative viability,Afatinib + Bortezomib; first compound 0.05 µM,0.562
same,relative viability,Afatinib + Bortezomib; first compound 0.1581 µM,0.507
same,relative viability,Afatinib + Bortezomib; first compound 0.5 µM,0.705
same,relative viability,Afatinib + Olaparib; first compound 0.005 µM,0.714
same,relative viability,Afatinib + Olaparib; first compound 0.01581 µM,0.76
same,relative viability,Afatinib + Olaparib; first compound 0.05 µM,0.745
same,relative viability,Afatinib + Olaparib; first compound 0.1581 µM,0.676
same,relative viability,Afatinib + Olaparib; first compound 0.5 µM,0.734
same,relative viability,Afatinib + Navitoclax; first compound 0.005 µM,0.507
same,relative viability,Afatinib + Navitoclax; first compound 0.01581 µM,0.457
same,relative viability,Afatinib + Navitoclax; first compound 0.05 µM,0.465
same,relative viability,Afatinib + Navitoclax; first compound 0.1581 µM,0.396
same,relative viability,Afatinib + Navitoclax; first compound 0.5 µM,0.343
same,relative viability,Afatinib + Foretinib; first compound 0.005 µM,0.105
same,relative viability,Afatinib + Foretinib; first compound 0.01581 µM,0.0995
same,relative viability,Afatinib + Foretinib; first compound 0.05 µM,0.0925
same,relative viability,Afatinib + Foretinib; first compound 0.1581 µM,0.109
same,relative viability,Afatinib + Foretinib; first compound 0.5 µM,0.0966
same,relative viability,Afatinib + Linsitinib; first compound 0.005 µM,0.72
same,relative viability,Afatinib + Linsitinib; first compound 0.01581 µM,0.827
same,relative viability,Afatinib + Linsitinib; first compound 0.05 µM,0.903
same,relative viability,Afatinib + Linsitinib; first compound 0.1581 µM,0.783
same,relative viability,Afatinib + Linsitinib; first compound 0.5 µM,0.903
same,relative viability,Afatinib; 0.005 µM,1.02
same,relative viability,Afatinib; 0.01581 µM,0.976
same,relative viability,Afatinib; 0.05 µM,1.02
same,relative viability,Afatinib; 0.1581 µM,0.969
same,relative viability,Afatinib; 0.5 µM,1.01
